According to patent EP4606800A1, “COMPOUND BASED ON ORYDALMINE STRUCTURE AND USE THEREOF” (Beijing Tide Pharmaceutical Co., Ltd., priority 2022, dated 2024):

Columns and labels:
[1] = system: inflammatory pain model induced by complete Freund's adjuvant in mice; assay: Mechanical pain test of inflammatory pain model induced by complete Freund's adjuvant in mice; assay type: in vivo, mice (C57BL/6J); settings: C57BL/6J male mice, n=4; tested 0.5h, 2h, 8h, 24h after first administration; Morphine 2 mg/kg subcutaneous; A10-0 5 mg/kg and A3 8.4 mg/kg oral gavage at intervals of 8h
[2] = system: Acetic Acid-induced Writhing Model; assay: Analgesia test in acetic acid-induced writhing model (oral gavage); assay type: in vivo; settings: CD-1 mice, n=5, mean ± standard error, single oral gavage; for Number of Writhing 5-15 min: 5-15 min after injection of 0.6% glacial acetic acid, acetic acid 2h after administration (Fentanyl intravenous, 10 min after). Dose mg/kg: Fentanyl 0.008, A10-0 18.0, A3 30.0, A10 30.1, A14 30.6, A15 20.6, A17 18.7, A18 32.3, A21 31.8, A22 22.3, A7 40.7, A19 18.4, A23 28.4, A44 32.0, A24 25.5, A53 26.9, A40 34.5, A55 40.5, A57 26.7, A4 30; for Number of Writhing 15-30 min: 15-30 min after injection of 0.6% glacial acetic acid, acetic acid 2h after administration (Fentanyl intravenous, 10 min after). Dose mg/kg: Fentanyl 0.008, A10-0 18.0, A3 30.0, A10 30.1, A14 30.6, A15 20.6, A17 18.7, A18 32.3, A21 31.8, A22 22.3, A7 40.7, A19 18.4, A23 28.4, A44 32.0, A24 25.5, A53 26.9, A40 34.5, A55 40.5, A57 26.7, A4 3; for Time to start writhing: 0.6% glacial acetic acid 2h after administration (Fentanyl intravenous, 10 min after). Dose mg/kg: Fentanyl 0.008, A10-0 18.0, A3 30.0, A10 30.1, A14 30.6, A15 20.6, A17 18.7, A18 32.3, A21 31.8, A22 22.3, A7 40.7, A19 18.4, A23 28.4, A44 32.0, A24 25.5, A53 26.9, A40 34.5, A55 40.5, A57 26.7, A4 30.0; for Number of Writhing Total: total of 5-15 min and 15-30 min after injection of 0.6% glacial acetic acid, acetic acid 2h after administration (Fentanyl intravenous, 10 min after). Dose mg/kg: Fentanyl 0.008, A10-0 18.0, A3 30.0, A10 30.1, A14 30.6, A15 20.6, A17 18.7, A18 32.3, A21 31.8, A22 22.3, A7 40.7, A19 18.4, A23 28.4, A44 32.0, A24 25.5, A53 26.9, A40 34.5, A5

CN1CC[C@]23c4c5ccc(O)c4O[C@H]2[C@@H](O)C=C[C@H]3[C@H]1C5 [Morphine]
analgesic effect on the inflammatory pain model in mice (mechanical pain threshold, Fig. 1) [1]: a good analgesic effect on the inflammatory pain mode in mice, but the effect cannot be maintained for a long term | effect of reducing the sole-swelling degree in mice (plantar thickness, Fig. 2) [1]: did not have an effect of reducing the sole-swelling degree in mice

COc1cc2c(cc1OC)[C@@H]1Cc3ccc(O)c(OC)c3CN1CC2 [Compound A10-0, Corydalmine]
Number of Writhing 5-15 min [2]: 4±3 | Number of Writhing 15-30 min [2]: 5±3 | Time to start writhing [2]: 545 ± 221 s | Number of Writhing Total [2]: 9±2 | analgesic effect on the inflammatory pain model in mice (mechanical pain threshold, Fig. 1) [1]: did not have a significant analgesic effect on the inflammatory pain model in mice | effect of reducing the sole-swelling degree in mice (plantar thickness, Fig. 2) [1]: had an effect of reducing the sole-welling degree in mice, but the effect was maintained for a short time

COc1cc2c(cc1OC)[C@@H]1Cc3ccc(OC(=O)[C@@H](C)c4ccc(-c5ccccc5)c(F)c4)c(OC)c3CN1CC2 [Compound A4]
Number of Writhing 5-15 min [2]: 14±14 | Number of Writhing 15-30 min [2]: 12±14 | Time to start writhing [2]: 154 ± 151 s | Number of Writhing Total [2]: 26±27
